Here are results for six molecules from PMC6627849, “Distant Non-Obvious Mutations Influence the Activity of a Hyperthermophilic Pyrococcus furiosus Phosphoglucose Isomerase” (Biomolecules, 2019).

Series [1] deals with T1, PfPGI (cupin-type phosphoglucose isomerase) (Pyrococcus furiosus, UniProt P83194, P132R/Y133G).
T1 construct: gene pgiA; pgiA in pET24d, expressed in E. coli, heat treatment plus Q-Sepharose and Superdex 200
Description: EPR of Mn2+ coordination on adding F6P. It is filed as binding. Conditions: 10 mM F6P, 0.2 mM MnCl2, pH 8.0; spectra at 13 K.

Series [2] deals with T2, PfPGI (cupin-type phosphoglucose isomerase) (Pyrococcus furiosus, UniProt P83194, P132A/Y133D).
T2 construct: gene pgiA; pgiA in pET24d, expressed in E. coli, heat treatment plus Q-Sepharose and Superdex 200
Description: EPR of Mn2+ coordination on adding F6P. Type of series: binding. The settings on record: 10 mM F6P, 0.2 mM MnCl2, pH 8.0; spectra at 13 K; F6P not seen in the crystal structure.

Series [3] addresses T3, PfPGI (cupin-type phosphoglucose isomerase) (Pyrococcus furiosus, UniProt P83194, P132A/Y133G).
T3 construct: gene pgiA; pgiA in pET24d, expressed in E. coli, heat treatment plus Q-Sepharose and Superdex 200
Description: EPR of Mn2+ coordination on adding F6P. Conditions: 10 mM F6P, 0.2 mM MnCl2, pH 8.0; spectra at 13 K. Type of series: binding.

Series [4] deals with T1, PfPGI (cupin-type phosphoglucose isomerase). Description: X-ray crystal structure. It is filed as binding. Conditions: Mn2+ in active site; 5PAA formed from F6P in the crystallization solution; pH 5.5.
Series [5] deals with the molecule itself. Description: crystal structure; PfPGI mutants at 11.5 mg/mL in 10 mM Tris/HCl pH 8.0, 50 mM F6P, 5 mM MnCl2; molecular replacement with wild-type PfPGI (PDB 1X82); RG, AD and VY with chains A and B, AG with the two subunits related by crystal symmetry.

`O=P(O)(O)OC[C@H]1OC(O)(CO)[C@@H](O)[C@@H]1O` (some centres unmarked) [F6P, fructose-6-phosphate]: the “EPR of Mn2+ coordination on adding F6P” value in series [1], in series [2] and in series [3] was “addition of F6P to any of the manganese-containing PfPGI mutants lead to a collapse” throughout.
For `O=C(O)[C@@H](O)[C@H](O)[C@H](O)COP(=O)(O)O` [5PAA, 5-phosphoarabinonic acid], in series [4], the X-ray crystal structure is listed as 5-phosphoarabinonic acid (5PAA), rather than F6P (as added to the crystallization mixture) was bound.

B1: PfPGI mutant P132R/Y133G (cupin-type phosphoglucose isomerase of Pyrococcus furiosus) (enzyme)
chain: MYKEPFGVKVDFETGIIEGAKKSVRRLSDMEGYFVDERAWKELVEKEDPVVYEVYAVEQEEKEGDLNFATTVLYPGKVGKEFFFTKGHFHAKLDRAEVYVALKGKGGMLLQTPEGDAKWISMEPGTVVYVPRGWAHRTVNIGDEPFIFLAIYPADAGHDYGTIAEKGFSKIVIEENGEVKVVDNPRWKK
notes: cupin-type phosphoglucose isomerase (PfPGI, EC 5.3.1.9), gene pgiA, Pyrococcus furiosus; monomeric subunit 21.5 kDa; the models have no missing residues, residues up to Lys189 are named; Crystallised with MnCl2 and F6P; 5PAA found in the active site; also called RG; mutant RG; source: E. coli (pET24d), overexpressed and purified as described previously [32]
On to B1, for which the binding result in series [5] is recorded as “binds”.

B2: PfPGI mutant P132A/Y133G (cupin-type phosphoglucose isomerase of Pyrococcus furiosus) (enzyme)
chain: MYKEPFGVKVDFETGIIEGAKKSVRRLSDMEGYFVDERAWKELVEKEDPVVYEVYAVEQEEKEGDLNFATTVLYPGKVGKEFFFTKGHFHAKLDRAEVYVALKGKGGMLLQTPEGDAKWISMEPGTVVYVPAGWAHRTVNIGDEPFIFLAIYPADAGHDYGTIAEKGFSKIVIEENGEVKVVDNPRWKK
notes: cupin-type phosphoglucose isomerase (PfPGI, EC 5.3.1.9), gene pgiA, Pyrococcus furiosus; monomeric subunit 21.5 kDa; the models have no missing residues, residues up to Lys189 are named; Crystallised with MnCl2 and F6P; 5PAA found in the active site; The two subunits of the dimer are related by crystal symmetry; also called AG; mutant AG; source: E. coli (pET24d), overexpressed and purified as …
Regarding B2, the binding result in series [5] is “binds”.

B3: PfPGI mutant P132A/Y133D (cupin-type phosphoglucose isomerase of Pyrococcus furiosus) (enzyme)
chain: MYKEPFGVKVDFETGIIEGAKKSVRRLSDMEGYFVDERAWKELVEKEDPVVYEVYAVEQEEKEGDLNFATTVLYPGKVGKEFFFTKGHFHAKLDRAEVYVALKGKGGMLLQTPEGDAKWISMEPGTVVYVPADWAHRTVNIGDEPFIFLAIYPADAGHDYGTIAEKGFSKIVIEENGEVKVVDNPRWKK
notes: cupin-type phosphoglucose isomerase (PfPGI, EC 5.3.1.9), gene pgiA, Pyrococcus furiosus; monomeric subunit 21.5 kDa; the models have no missing residues, residues up to Lys189 are named; Structure holds only Mn2+ in the active site; also called AD; mutant AD; source: E. coli (pET24d), overexpressed and purified as described previously [32]
As to B3, the binding result in series [5] is “binds”.

B4: PfPGI mutant P132V (cupin-type phosphoglucose isomerase of Pyrococcus furiosus) (enzyme)
chain: MYKEPFGVKVDFETGIIEGAKKSVRRLSDMEGYFVDERAWKELVEKEDPVVYEVYAVEQEEKEGDLNFATTVLYPGKVGKEFFFTKGHFHAKLDRAEVYVALKGKGGMLLQTPEGDAKWISMEPGTVVYVPVYWAHRTVNIGDEPFIFLAIYPADAGHDYGTIAEKGFSKIVIEENGEVKVVDNPRWKK
notes: cupin-type phosphoglucose isomerase (PfPGI, EC 5.3.1.9), gene pgiA, Pyrococcus furiosus; monomeric subunit 21.5 kDa; the models have no missing residues, residues up to Lys189 are named; Crystals grown with MnCl2 and soaked with F6P; also called VY; mutant VY; source: E. coli (pET24d), overexpressed and purified as described previously [32]
On to B4, for which the binding result in series [5] is recorded as “binds”.
